Measurements taken from US9993562B2, “Metallic gold cluster molecules as therapeutic agents for arthritic animals” (priority 2016, dated 2018).

How the values were obtained:
[1] = light and heat; cited from earlier work
[2] = orally administered form, crystalline solid; cited from earlier work
IL-6 = assay: Amount of IL-6 at the arthritic joints (FIG. 10); assay type: in vivo, DBA/1 male mice; details: group 3, oral 1 mg/kg daily
Protocol: (§1) On day 22, groups of mice were given different drugs once each day for 28 days (4 weeks) until day 49 (end of week 7). The groups of mice were examined for inflammation and status.
(§2) In reference to FIGS. 10 and 11, the amount of pro-inflammation cytokine factors IL-6 and IL-1β were measured at the arthritic joints of the variously treated mice groups.

[3] = system: Collagen induced arthritis in mice; assay: Visual inflammation scoring of paws (0-4 per limb, four limbs summed), collagen induced arthritis; assay type: in vivo, DBA/1 male mice; details: for Inflammation visual score (sum of four limbs, each 0-4): i.g. 1 mg/kg once daily from day 22
Excerpt: Collagen induced arthritis in mice has been the standard animal model for studying rheumatoid arthritis and other polyarthritis. DBA/1 male mice weighted 20-22 grams were purchased from Hua-Fu-Kang Biotechnology Limited, Beijing, China. Type II collagen and Complete Freund's Adjuvant were purchased from Chondrex Inc., Redmond, Wash., USA. Auranofin was purchased from Sigma, USA and Dexamethasone was purchased from Jin-Yao Amino Acid Company, Tianjing, China. Gold25(peptide)9 cluster molecules were prepared according to Example 1.
(§3) Type II collagen was dissolved in 0.1 mM acetic acid solution and was emulsified with equal volume of Complete Freund's Adjuvant to make a 1.0 mg/ml Type II collagen emulsion. After one week of resting and environment adjustment, DBA/1 male mice were divided into groups, each group was consisted of 10 mice. Each animal was injected intradermally at the 2-3 cm base of the tail an emulsion of 100 μg Type II collagen. On day 21, a second booster dose of 100 μg Type II collagen emulsion was injected. Negative control group of mice are injected with equal amount of 0.9% Sodium Chloride solution.
as §1
The inflammation was assessed by means of a visual scoring method where mouse individual paws were graded from 0-4 as follows:
0 score: no redness and no swelling;
1 score: mild erythema at the toes;
2 scores: toe joints and paw swelling;
3 scores: swelling below ankle
4 scores: all ankle and paw swelling. • All four limbs of each mouse were examined and scored, and scores of all four limbs were added together for each mouse.

[4] = system: Collagen induced arthritis in mice; assay: Hematoxylin and eosin histology of hind limb joint sections (FIG. 8); assay type: in vivo, DBA/1 male mice; details: H&E; oral 1 mg/kg daily
Protocol: as §3, §1
To evaluate the soft tissue damages around the joint area, the joint tissues of the hind limbs of each mouse groups were then fixed, embedded, sectioned into slides and hematoxylin and eosin stained to examine the histology and histopathology changes at the joints.

[5] = system: Collagen induced arthritis in mice; assay: 3D CT scan of paw joints, bone density changes (FIG. 7); assay type: in vivo, DBA/1 male mice; details: end of week 7; oral 1 mg/kg daily
Protocol: as §3, §1

[6] = Amount of gold at the arthritic joints (FIG. 9); assay type: in vivo, DBA/1 male mice; details: group 3, oral 1 mg/kg daily
Protocol: as §1
In reference to FIG. 9, the amount of gold was measured at the arthritic joints of the variously treated mice groups.

IL-1β = assay: Amount of IL-1β at the arthritic joints (FIG. 11); assay type: in vivo, DBA/1 male mice; details: group 3, oral 1 mg/kg daily
Protocol: as §1, §2

[7] = system: Collagen induced arthritis in mice; assay: Pictures of hind limb swelling (FIG. 6), collagen induced arthritis; assay type: in vivo, DBA/1 male mice; details: end of 7 weeks of the experiment; oral 1 mg/kg daily
Protocol: as §3, §1

[8] = patients; cited from earlier work
[9] = Effect of treatment on body weight of type II collagen immunized mice; assay type: in vivo, DBA/1 male mice; details: mean ± sd
Protocol: DBA/1 male mice weighted 20-22 grams were purchased from Hua-Fu-Kang Biotechnology Limited, Beijing, China. Type II collagen and Complete Freund's Adjuvant were purchased from Chondrex Inc., Redmond, Wash., USA. […] Gold25(peptide)9 cluster molecules were prepared according to Example 1.
as §3, §1

In the case of `CC[PH](CC)(CC)[Au][S][C@@H]1O[C@H](COC(C)=O)[C@@H](OC(C)=O)[C@H](OC(C)=O)[C@H]1OC(C)=O` [Auranofin, 2,3,4,6-tetra-o-acetyl-1-thio-β-D-glucopyranosato-S-(triethyl-phosphine)-gold, reference compound], the “Stability of the powder” value [1] is listed as “unstable and must be protected from light and heat”, the Solubility in water [2] is listed as “insoluble in water” and the “Amount of IL-6 at the arthritic joints” value (IL-6) is listed as “remained high”. The “Inflammation visual score (sum of four limbs, each 0-4)” value (shortened to “Inflammation visual score”) ([3]; 35 d) was 6.66 ± 2.00, the “Inflammation visual score” value ([3]; 38 d) was 5.77 ± 3.42 and the “Inflammation visual score” value ([3]; 42 d) was 8.11 ± 2.47. The “Inflammation visual score” value ([3]; 45 d) was 8.33 ± 3.42, the “Inflammation visual score” value ([3]; 49 d) was 9.88 ± 3.06 and the “Swelling scores (in words)” value ([3]; oral 1 mg/kg body weight) was “slightly lower swelling scores”. The “Joint histopathology (bone erosion, soft tissue damage, synovial macrophage infiltration)” value [4] was “significant soft tissue damages at the joint areas, and large number of infiltration of synovial macrophage cells”, the “Bone deformation and osteolysis of paw joints, 3D CT” value [5] was “still developed bone deformation and osteolysis” and the “Amount of gold at the arthritic joints” value [6] was “Less but comparable amount gold”. The “Amount of IL-1β at the arthritic joints” value (IL-1β) was “remained high”, the “Hind limb swelling in pictures (FIG. 6)” value [7] was “swelling and no obvious improvement” and the Side effects [8] was “Diarrhea is the most commonly reported”. The “Mice Body Weight” value ([9]; 0 w (before dosing, which starts day 22), group i.g. 1 mg/kg) was 21.60 ± 1.17 g, the “Mice Body Weight” value ([9]; 1 wk (before dosing), group i.g. 1 mg/kg) was 23.25 ± 1.11 g and the “Mice Body Weight” value ([9]; 2 wk (before dosing), group i.g. 1 mg/kg) was 23.75 ± 1.11 g. The “Mice Body Weight” value ([9]; 3 wk (before dosing), group i.g. 1 mg/kg) was 24.35 ± 1.53 g, the “Mice Body Weight” value ([9]; 4 wk, i.g. 1 mg/kg once daily from day 22) was 22.10 ± 1.10 g and the “Mice Body Weight” value ([9]; 5 wk, i.g. 1 mg/kg once daily from day 22) was 21.74 ± 1.14 g. The “Mice Body Weight” value ([9]; 6 wk, i.g. 1 mg/kg once daily from day 22) was 23.24 ± 0.08 g and the “Mice Body Weight” value ([9]; 7 wk, i.g. 1 mg/kg once daily from day 22) was 23.33 ± 0.25 g.
